Measured values from US6506766B1 (Abbott Laboratories, priority 1998, dated 2003).
Like-named read-outs stand apart in the source and are kept apart here.

Experiments:
[1] = molecular target: T1, human progesterone receptor-A [PRA] isoform (Homo sapiens, UniProt P06401); experiment: Radioligand binding with human progesterone receptor cytosol ([3H]-progesterone competition)
T1 construct: host or cells: insect SF21 cells (baculovirus)
T1 sequence (P06401 1-769 isoform P06401-2): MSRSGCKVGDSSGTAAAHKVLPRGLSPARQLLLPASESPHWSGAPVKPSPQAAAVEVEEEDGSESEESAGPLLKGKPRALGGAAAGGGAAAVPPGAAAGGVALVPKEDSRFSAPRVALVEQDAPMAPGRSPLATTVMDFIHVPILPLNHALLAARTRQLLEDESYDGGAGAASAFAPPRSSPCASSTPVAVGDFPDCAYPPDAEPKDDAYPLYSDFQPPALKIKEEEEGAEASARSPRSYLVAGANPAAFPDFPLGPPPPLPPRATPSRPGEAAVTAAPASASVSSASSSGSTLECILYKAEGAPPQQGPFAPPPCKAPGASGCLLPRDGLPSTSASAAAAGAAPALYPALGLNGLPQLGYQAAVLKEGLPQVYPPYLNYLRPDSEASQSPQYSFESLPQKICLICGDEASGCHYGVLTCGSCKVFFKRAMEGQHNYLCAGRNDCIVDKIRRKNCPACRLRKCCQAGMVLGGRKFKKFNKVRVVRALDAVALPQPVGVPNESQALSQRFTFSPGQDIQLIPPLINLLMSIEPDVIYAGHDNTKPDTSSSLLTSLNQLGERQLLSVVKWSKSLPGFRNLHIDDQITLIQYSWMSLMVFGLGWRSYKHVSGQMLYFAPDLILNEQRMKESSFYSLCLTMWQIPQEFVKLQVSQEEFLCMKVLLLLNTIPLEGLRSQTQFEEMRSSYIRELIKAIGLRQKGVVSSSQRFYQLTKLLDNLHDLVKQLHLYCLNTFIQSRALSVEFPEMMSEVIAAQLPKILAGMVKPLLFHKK

[2] = molecular target: T2, human glucocorticoid receptor-α [GRX] isoform (Homo sapiens, UniProt P04150); experiment: Radioligand binding with human glucocorticoid receptor cytosol ([3H]-dexamethasone competition)
T2 construct: host or cells: insect SF21 cells (baculovirus)
T2 sequence (P04150 1-777): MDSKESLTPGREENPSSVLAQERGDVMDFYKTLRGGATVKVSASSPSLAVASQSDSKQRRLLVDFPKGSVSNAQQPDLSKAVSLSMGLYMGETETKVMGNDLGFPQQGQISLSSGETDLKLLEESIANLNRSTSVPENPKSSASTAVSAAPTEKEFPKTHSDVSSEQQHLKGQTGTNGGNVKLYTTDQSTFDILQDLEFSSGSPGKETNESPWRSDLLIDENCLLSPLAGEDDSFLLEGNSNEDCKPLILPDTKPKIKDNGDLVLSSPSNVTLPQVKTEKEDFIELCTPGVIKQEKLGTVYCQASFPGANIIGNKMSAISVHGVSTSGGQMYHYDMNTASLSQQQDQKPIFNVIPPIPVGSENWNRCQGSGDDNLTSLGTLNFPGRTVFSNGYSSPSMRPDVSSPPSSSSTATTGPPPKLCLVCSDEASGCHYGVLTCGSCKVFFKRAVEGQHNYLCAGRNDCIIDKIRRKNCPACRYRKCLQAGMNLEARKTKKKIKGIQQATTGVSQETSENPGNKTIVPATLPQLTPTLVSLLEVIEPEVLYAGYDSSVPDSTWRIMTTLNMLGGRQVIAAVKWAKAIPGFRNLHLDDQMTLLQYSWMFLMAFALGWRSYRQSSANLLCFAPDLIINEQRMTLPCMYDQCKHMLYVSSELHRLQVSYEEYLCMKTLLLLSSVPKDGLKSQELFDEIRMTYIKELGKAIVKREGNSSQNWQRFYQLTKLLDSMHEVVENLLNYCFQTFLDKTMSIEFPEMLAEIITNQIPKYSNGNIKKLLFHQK

[3] = PRA cytosol expressed in insect SF21 cells, [3H]Prog ~0.8 nM, 4° C. overnight, Ki by Cheng-Prusoff, KL ~4.5 nM, read-out: Ki (nM) PR
[4] = GRX cytosol expressed in insect SF21 cells, [3H]-Dex ~0.9 nM, 4° C. overnight, Ki by Cheng-Prusoff, KL ~[…], read-out: Ki (nM) GR

Ki [1, 3]	Ki [2, 4]	Ki ([2]; Ki (nM) GR, GRX cytosol expressed in insect SF21 cells, [3H]-Dex ~0.9 nM, 4° C. overnight, Ki by Cheng-Prusoff, KL ~[…])	SMILES	Ki ([1]; Ki (nM) PR)	Ki ([2]; Ki (nM) GR)
222 nM	9 nM		COc1c(O)ccc2c1-c1ccc3c(c1/C(=C/c1cccc(F)c1)O2)C(C)=CC(C)(C)N3 [Example 374, Z-5-(3-Fluorobenzylidenyl)-10-methoxy-9-hydroxy-2,2,4-trimethyl-2,5-dihydro-1H-[1]benzopyrano[3,4-f]quinoline]		
156 nM	0.78 nM		CCC1Oc2ccc(O)c(OC)c2-c2ccc3c(c21)C(C)=CC(C)(C)N3 (centres unmarked) [Example 376, 9-Hydroxy-10-methoxy-5-ethyl-2,2,4-trimethyl-2,5-dihydro-1H-[1]benzopyrano[3,4-f]quinoline]		
440 nM	1.1 nM		C=CCC1Oc2ccc(OC(=O)CCC(=O)N(CC)CC)c(OC)c2-c2ccc3c(c21)C(C)=CC(C)(C)N3 (centres unmarked) [Example 378, 2,5-Dihydro-9-(4-N,N-diethylamino-4-oxo-butanoyloxy)-10-methoxy-2,2,4-trimethyl-5-(2-propenyl)-1H-[1]benzopyrano[3,4-f]quinoline]		
175 nM	1.4 nM		C=CCC1Oc2ccc(OC(=O)CCC(=O)N3CCCCC3)c(OC)c2-c2ccc3c(c21)C(C)=CC(C)(C)N3 (centres unmarked) [Example 379, 2,5-Dihydro-9-(4-N-piperidino-4-oxo-butanoyloxy)-10-methoxy-2,2,4-trimethyl-5-(2-propenyl)-1H-[1]benzopyrano[3,4-f]quinoline]		
204 nM	1.2 nM		C=CCC1Oc2ccc(OC(=O)CCC(=O)N3CCOCC3)c(OC)c2-c2ccc3c(c21)C(C)=CC(C)(C)N3 (centres unmarked) [Example 380, 2,5-Dihydro-9-(4-N-morpholino-4-oxo-butanoyloxy)-10-methoxy-2,2,4-trimethyl-5-(2-propenyl)-1H-[1]benzopyrano[3,4-f]quinoline]		
9820 nM	7.1 nM		COc1c(OC(=O)CCC(=O)N(C)C)ccc2c1-c1ccc3c(c1C(c1cc(F)c(F)c(F)c1)O2)C(C)=CC(C)(C)N3 (centres unmarked) [Example 381, 2,5-Dihydro-9-(4-N,N-dimethylamino-4-oxo-butanoyloxy)-10-methoxy-2,2,4-trimethyl-5-(3,4,5-trifluorophenyl)-1H-[1]benzopyrano[3,4-f]quinoline]		
46 nM	4.8 nM		CC1=CC(C)(C)Nc2ccc3c(c21)C(c1cccs1)Oc1ccc(O)c(Cl)c1-3 (centres unmarked) [Example 383, 2,5-Dihydro-9-hydroxy-10-chloro-2,2,4-trimethyl-5-(2-thienyl)-1H-[1]benzopyrano[3,4-f]quinoline]		
197 nM	0.67 nM		COc1c(O)ccc2c1-c1ccc3c(c1C(C1CCCC1)O2)C(C)=CC(C)(C)N3 (centres unmarked) [Example 384, 2,5-Dihydro-9-hydroxy-10-methoxy-2,2,4-trimethyl-5-cyclopentyl-1H-[1]benzopyrano[3,4-f]quinoline]		
105 nM	6.5 nM		C=CCC1Oc2ccc(CO)c(OC)c2-c2ccc3c(c21)C(C)=CC(C)(C)N3 (centres unmarked) [Example 386, 2,5-Dihydro-9-hydroxymethyl-10-methoxy-2,2,4-trimethyl-5-allyl-1H-[1]benzopyrano[3,4-f]quinoline]		
169 nM	0.65 nM		C=CCCCC1Oc2ccc(O)c(OC)c2-c2ccc3c(c21)C(C)=CC(C)(C)N3 (centres unmarked) [Example 387]		
199 nM	2.8 nM		C=CCC1Oc2ccc(C(=O)OC)c(OC)c2-c2ccc3c(c21)C(C)=CC(C)(C)N3 (centres unmarked) [Example 388, 2,5-Dihydro-9-methylcarboxylate-10-methoxy-2,2,4-trimethyl-5-allyl-1H-[1]benzopyrano[3,4-f]quinoline]		
27.5 nM	0.58 nM		C=C=CC1Oc2ccc(O)c(OC)c2-c2ccc3c(c21)C(C)=CC(C)(C)N3 (centres unmarked) [Example 389, 2,5-Dihydro-9-hydroxy-10-methoxy-2,2,4-trimethyl-5-allenyl-1H-[1]benzopyrano[3,4-f]quinoline]		
487 nM		1.2 nM	COc1cccc2c1-c1ccc3c(c1[C@H]([C@H]1C=CCCC1)O2)C(C)=CC(C)(C)N3 [Example 392, (−)(5S,3′R)2,5-Dihydro-10-methoxy-2,2,4-trimethyl-5-(cyclohexen-3-yl)-1H-[1]benzopyrano[3,4-f]quinoline]		
109 nM	0.89 nM		CC/C=C\CC1Oc2ccc(O)c(OC)c2-c2ccc3c(c21)C(C)=CC(C)(C)N3 (centres unmarked) [Example 394]		
2120 nM	6.3 nM		CSCOc1cccc(C2Oc3cccc(OC(F)F)c3-c3ccc4c(c32)C(C)=CC(C)(C)N4)c1 (centres unmarked) [Example 396]		
1080 nM	6.7 nM		COc1c(O)ccc2c1-c1ccc3c(c1C(c1cccc(O)c1)O2)C(C)=CC(C)(C)N3 (centres unmarked) [Example 398, 2,5-Dihydro-9-hydroxy-10-methoxy-2,2,4-trimethyl-5-(3-hydroxyphenyl)-1H-[1]benzopyrano[3,4-f]quinoline]		
5960 nM	3.5 nM		COc1c(O)ccc2c1-c1ccc3c(c1C(c1cccc(OCSC)c1)O2)C(C)=CC(C)(C)N3 (centres unmarked) [Example 400, 2,5-Dihydro-9-hydroxy-10-methoxy-2,2,4-trimethyl-5-(3-(methylthiomethoxy)phenyl)-1H-[1]benzopyrano[3,4-f]quinoline]		
6080 nM	134 nM		CC1=CC(C)(C)Nc2ccc3c(c21)C(=Cc1ccccc1)Oc1ccc(O)c(Cl)c1-3 [Example 401, 9-Hydroxy-10-chloro-5-(phenylmethylene)-2,2,4-trlimethyl-1H-2,5-dihydro-[1]benzopyrano[3,4-f]quinoline]		
			COc1c(O)ccc2c1-c1ccc3c(c1C(c1ccccc1OC(=O)N(C)C)O2)C(C)=CC(C)(C)N3 (centres unmarked) [Example 402]	10100 nM	3.3 nM
			COc1c(OC(=O)N(C)C)ccc2c1-c1ccc3c(c1C(c1ccccc1OC(=O)N(C)C)O2)C(C)=CC(C)(C)N3 (centres unmarked) [Example 403, 2,5-Dihydro-9-N,N-dimethylcarbamoyloxy-10-methoxy-2,2,4-trimethyl-5-([2-N,N-dimethylcarbamoyloxy]phenyl)-1H-[1]benzopyrano[3,4-f]quinoline]	≥ 10000 nM	131 nM
49.7 nM	1.3 nM		CCC1Oc2ccc(O)c(Cl)c2-c2ccc3c(c21)C(C)=CC(C)(C)N3 (centres unmarked) [Example 404, 2,5-Dihydro-9-hydroxy-10-chloro-2,2,4-trimethyl-5-ethyl-1H-[1]benzopyrano[3,4-f]quinoline]		
75.1 nM	1.1 nM		CC1=CC(C)(C)Nc2ccc3c(c21)C(C(C)C)Oc1ccc(O)c(Cl)c1-3 (centres unmarked) [Example 405, 2,5-Dihydro-9-hydroxy-10-chloro-2,2,4-trimethyl-5-isopropyl-1H-[1]benzopyrano[3,4-f]quinoline]		
97.9 nM	2.3 nM		COc1c(O)ccc2c1-c1ccc3c(c1C(=Cc1ccccc1)O2)C(C)=CC(C)(C)N3 [Example 406, 9-Hydroxy-10-methoxy-5-(phenylmethylene)-2,2,4-trimethyl-1H-2,5-dihydro-[1]benzopyrano[3,4-f]quinoline]		
16.4 nM	1.8 nM		CCCCC1Oc2ccc(O)c(Cl)c2-c2ccc3c(c21)C(C)=CC(C)(C)N3 (centres unmarked) [Example 407, 2,5-Dihydro-9-hydroxy-10-chloro-2,2,4-trimethyl-5-butyl-1H-[1]benzopyrano[3,4-f]quinoline]		

SMILES	Ki [1, 3]	Ki [2, 4]	Ki ([2]; Ki (nM) GR, GRX cytosol expressed in insect SF21 cells, [3H]-Dex ~0.9 nM, 4° C. overnight, Ki by Cheng-Prusoff, KL ~[…])	Ki ([1]; Ki (nM) PR)	Ki ([2]; Ki (nM) GR)
COc1c(O)ccc2c1-c1ccc3c(c1C(c1cccc(OC(C)=O)c1)O2)C(C)=CC(C)(C)N3 (centres unmarked) [Example 395, 2,5-Dihydro-9-hydroxy-10-methoxy-2,2,4-trimethyl-5-(3-acetoxyphenyl)-1H-[1]benzopyrano[3,4-f]quinoline]	1210 nM	2.1 nM			
